Common to all, as to type: cell-based
In data set [1] the test system is K-562 human leukemia cell lines. Description: antiproliferative assay, K-562. The note with it: K562, read-out: GI50, inhibition of proliferation of K-562 human leukemia cell lines. Here is the method: (§1) HeLa cells were used for the cytotoxic assay, HUVEC and K-562 cells were taken for the antiproliferative assay. The assays were conducted with phaeofungin C as described previously (Krauth et al., Bioorg. Med. Chem. 2010, 18, 1816-1821; Abdou et al., Phytochemistry 2010, 71, 110-116). Dose-response curves and IC50 values were then plotted and estimated, respectively.

The test system of another data set is HUVEC. Description: antiproliferative assay, HUVEC. The note with it: Homo sapiens, read-out: GI50, inhibition of proliferation of HUVEC. Here is the method:
as §1

Data set [2] can be described thus: cytotoxic assay, HeLa cells. The note with it: human, read-out: IC50, cytotoxic effects against HeLa cells. Here is the method:
as §1

What is called IC50 is the midpoint of a concentration-inhibition curve. Consider `Cc1cc(O)c(O)c(Oc2cc(C)c3c4c(c(=O)oc3c2O)Nc2c(O)cc(C)cc2S4)c1` [Phaeofungin C], for which the values for the GI50 (in data set [1]; in the data set with HUVEC) were 2.4 µM and 7.5 µM, respectively. Also, in data set [2], the IC50 was determined as 10 µM.

Source of the values: patent US9062077B2, “Benzopyranobenzothiazinones and their use as fungicides, antibiotics and antitumor agents” (Leibniz-Institut fuer Naturstoff-Forschung und …, priority 2011, dated 2015).
